Nine compounds from US7667048B2, “Green and orange fluorescent labels and their uses” (Aries Associates, Inc., priority 2002, dated 2010) can be followed below.

The nature of one series: Fluorescence excitation and emission spectra. The class given is physicochemical. To be noted: DMSO/Phosphate buffer. How it is done: Fluorescence excitation and emission spectra were measured either using Hitachi F-4500 Fluorescence Spectrophotometer in ratio mode with a rhodamine B quantum counter. For fluorescence polarization experiments, two different detection instruments were used, a BMG Polarstar and an LJL Analyst. Molecular brightness measurements in 96-well and 384-well microtiter plates were performed in the following four instruments: (1) the LJL analyst, (2) the Tecan Ultra, (3) the PerSeptive and, (4) Chromagen's own photon counting instrument as described in U.S. patent application Ser. No. 09/552/803 and its continuation in part.
As for `CN(C)S(=O)(=O)c1cc(O)c2ccc3c(S(=O)(=O)Nc4ccc(CCCC(=O)ON5C(=O)CCC5=O)cc4)cc(S(=O)(=O)N(C)C)c4ccc1c2c34` [compound 17, 1-Hydroxy-3,6-di(dimethylsulfonamido)-8-(4′-succinimidylbutyrate)-phenylsulfonamido-pyrene], the “fluorescence λ em” value was 553 nm and the “fluorescence λ ex” value stood at 510 nm.

Still in this series, the particulars now being: H2O.
Consider “3-Hydroxy-6,8-disulfonate-(4′-succinyl-6′-aminohexyl)-pyrene [compound 5]”, for which the “fluorescence λ em” value stood at 505 nm and the “fluorescence λ ex” value worked out at 450 nm.

“3-Hydroxy-6,8-disulfonate-(4′-succinylamino-6′-isothiocyanyl-hexyl)-pyrene [compound 6]”: the “fluorescence λ em” value is 503 nm and the “fluorescence λ ex” value came out at 450 nm.

In the case of `Nc1cc(O)c2ccc3c(S(=O)(=O)O)cc(S(=O)(=O)O)c4ccc1c2c43` [compound 3, 1-Amino-3-hydroxy-6,8-disulfonate-pyrene], the “fluorescence λ em” value came to 492 nm and the “fluorescence λ ex” value is 450 nm.

Consider `COC(=O)CCC(=O)Nc1cc(O)c2ccc3c(S(=O)(=O)O)cc(S(=O)(=O)O)c4ccc1c2c34` [compound 4, 3-Hydroxy-6,8-disulfonate-methylsuccinylamino-pyrene], for which the “fluorescence λ em” value amounted to 492 nm and the “fluorescence λ ex” value was 450 nm.

The series is the same for the next values; noted with them: MeOH/H2O.
Take “1-Hydroxy-3,6-dimethylsulfonamido-8-sulfonate-pyrene [compound 14]”: the “fluorescence λ em” value is 545 nm and the “fluorescence λ ex” value came out at 490 nm.

As to `NCCCC(=O)c1cc(O)c2ccc3c(S(=O)(=O)O)cc(S(=O)(=O)O)c4ccc1c2c34` [compound 7, 3-Hydroxy, 6,8-disulfonate-aminoethylacetyl-pyrene], the “fluorescence λ em” value worked out at 502 nm and the “fluorescence λ ex” value is 450 nm.

For `CN(C)S(=O)(=O)c1cc(O)c2ccc3c(S(=O)(=O)N(C)CCCN)cc(S(=O)(=O)N(C)C)c4ccc1c2c43` [compound 15, 1-Hydroxy-3,6-di-(dimethylsulfonamido)-8-(3-aminopropyl-methyl-sulfonamido)-pyrene], the “fluorescence λ em” value is on record as 548 nm and the “fluorescence λ ex” value was 490 nm.

With `CN(C)S(=O)(=O)c1cc(O)c2ccc3c(S(=O)(=O)N(C)CCCN=C=S)cc(S(=O)(=O)N(C)C)c4ccc1c2c43` [compound 16], the “fluorescence λ em” value is 548 nm and the “fluorescence λ ex” value was 490 nm.
